Experimental data taken from the NIST ThermoML archive (doi:10.1021/je049610v).

Key:
[1] = xn = mol fraction of the nth substance listed; conditions: 101 kPa, Liquid
[2] = refractive index (Na D-line) (dimensionless); xn = mol fraction of the nth substance listed; conditions: 101 kPa, Liquid

COc1ccccc1 [anisole] + CN(C)C=O
Conditions | mass density, 298.15 K [kg/m3] | mass density, 303.15 K [kg/m3] | mass density, 308.15 K [kg/m3] | refractive index, 298.15 K | refractive index, 303.15 K | refractive index, 308.15 K | speed of sound, 298.15 K [m/s] | viscosity, 298.15 K [mPa·s] | viscosity, 303.15 K [mPa·s] | viscosity, 308.15 K [mPa·s]
[1], x1 = 0.1004 | 951 | 946.6 | 942.3 | – | – | – | 1456 | 0.833 | 0.787 | 0.739
[1], x1 = 0.196 | 957 | 952.7 | 948.2 | – | – | – | 1451 | 0.859 | 0.81 | 0.76
[1], x1 = 0.2939 | 962.9 | 958.2 | 953.9 | – | – | – | 1445 | 0.886 | 0.833 | 0.78
[1], x1 = 0.3966 | 968.5 | 964.1 | 959.7 | – | – | – | 1438 | 0.912 | 0.856 | 0.799
[1], x1 = 0.4975 | 973.4 | 968.8 | 964.4 | – | – | – | 1432 | 0.937 | 0.878 | 0.819
[1], x1 = 0.5983 | 977.6 | 973.2 | 968.7 | – | – | – | 1427 | 0.957 | 0.897 | 0.836
[1], x1 = 0.6953 | 981.2 | 976.9 | 972.4 | – | – | – | 1422 | 0.977 | 0.913 | 0.851
[1], x1 = 0.7984 | 984.7 | 980.3 | 975.9 | – | – | – | 1418 | 0.994 | 0.928 | 0.863
[1], x1 = 0.9042 | 987.7 | 983.3 | 978.5 | – | – | – | 1413 | 1.006 | 0.938 | 0.871
[1], x1 = 1 | 988.9 | 984.1 | 979.4 | – | – | – | 1410 | 0.992 | 0.919 | 0.853
[2], x1 = 0.1004 | – | – | – | 1.4407 | 1.4381 | 1.4356 | – | – | – | –
[2], x1 = 0.196 | – | – | – | 1.4513 | 1.4487 | 1.4462 | – | – | – | –
[2], x1 = 0.2939 | – | – | – | 1.4614 | 1.4587 | 1.4558 | – | – | – | –
[2], x1 = 0.3966 | – | – | – | 1.4708 | 1.4683 | 1.4656 | – | – | – | –
[2], x1 = 0.4975 | – | – | – | 1.4798 | 1.4771 | 1.4744 | – | – | – | –
[2], x1 = 0.5983 | – | – | – | 1.4878 | 1.4852 | 1.4825 | – | – | – | –
[2], x1 = 0.6953 | – | – | – | 1.4953 | 1.4928 | 1.4902 | – | – | – | –
[2], x1 = 0.7984 | – | – | – | 1.5024 | 1.5 | 1.4973 | – | – | – | –
[2], x1 = 0.9042 | – | – | – | 1.5099 | 1.5071 | 1.5043 | – | – | – | –
[2], x1 = 1 | – | – | – | 1.5148 | 1.5124 | 1.5092 | – | – | – | –
